Measurements from US20170112741A1, “AGENT FOR AMELIORATING SKIN SYMPTOM, HAIR GROWTH AGENT OR SLIMMING AGENT” (GOLDCREST MEDICINE INSTITUTE CO., LTD., priority 2014, published 2017).

Legend:
seborrheic keratosis = assay: Treatment of seborrheic keratosis generated from senile plaque by oral cabergoline; type: in vivo, human; details: patient A
Text: Investigation was made for the treatment of seborrheic keratosis generated from senile plaque. On the back side of the wrist of the right hand of patient A, there was seborrheic keratosis with width of 15 mm×length of 10 mm, which had remained as a problem for 13 years. In summer, elevation of the skin of about 4 mm with blackish brown color occurred.
Furthermore, 2 years ago, seborrheic keratosis with width of 13 mm×length of 9 mm was caused from senile plaque on the back of the right hand, and elevation of the skin of about 2 mm with dark brown color was recognized. […] Thus, it is recognized that the seborrheic keratosis with a short clinical history is more responsive to the treatment.

[1] = Slimming effect of cabergoline 0.25 mg/week in patient A; type: in vivo, human
Protocol: Due to an illness, patient A had to undergo the cabergoline treatment from the end of June of year 2013, and for this reason, attempted to lose weight again. Since it was expected that the body weight would be gained back, the target value was set at 56.5 kg, and a long-term plan without any exercise or restricted diet was adopted. However, regular meals were taken and only the overeating was strictly avoided.
Meanwhile, since cabergoline was administered at 0.25 mg/week for 3 months of the measurement period, the total dose of cabergoline was calculated to be 3 mg. […] In this regard, it is considered that no side effect would appear with administration of such a small amount.

[2] = patient A, 0.25 mg/week, November 14
[3] = patient A, 0.25 mg/week, November 28
[4] = patient A, 0.25 mg/week, October 3
[5] = patient A, 0.25 mg/week, October 17
[6] = patient A, 0.25 mg/week, October 31
[7] = patient A, 0.25 mg/week, Sep. 5, 2013 (start of measurement period)
[8] = patient A, 0.25 mg/week, September 19

C=CCN1C[C@H](C(=O)N(CCCN(C)C)C(=O)NCC)C[C@@H]2c3cccc4[nH]cc(c34)C[C@H]21 [cabergoline]
Color of seborrheic keratosis on back side of right wrist (seborrheic keratosis; 13 years history, oral cabergoline over the last year): faded from blackish brown to brown | Color of seborrheic keratosis on the back of the right hand (seborrheic keratosis; as of March 22, initially dark brown): faded to pale yellow brown | Elevation of the skin, seborrheic keratosis on back side of right wrist (seborrheic keratosis; lesion width 15 mm×length 10 mm, 13 years history, elevation about 4 mm, oral cabergoline over the last year): became flattened | Hungry feeling ([1]; patient A during weight loss under cabergoline): no hungry feeling | Waist size ([1]; patient A under cabergoline, reduced from 91 cm at a maximum): 83 cm | Body weight course ([1]; patient A under cabergoline, target value 56.5 kg, no exercise or restricted diet): steadily reduced to the target value | Obesity BMI ([1]; patient A, 0.25 mg/week, December 12): 24.0 | Body weight ([1]; patient A, 0.25 mg/week, December 12 (15 weeks)): 56.1 kg | Weight loss ([1]; patient A, 0.25 mg/week, December 12, since previous measurement): 0.7 kg | Total weight loss (%) ([1]; patient A, 0.25 mg/week, December 12, vs Sep. 5, 2013): −10.0% | Body weight [1, 2]: 57.5 kg | Obesity BMI [1, 2]: 24.6 | Weight loss ([1]; patient A, 0.25 mg/week, November 14, since previous measurement): 0.8 kg | Total weight loss (%) ([1]; patient A, 0.25 mg/week, November 14, vs Sep. 5, 2013): −7.7% | Body weight [1, 3]: 56.8 kg | Obesity BMI [1, 3]: 24.3 | Weight loss ([1]; patient A, 0.25 mg/week, November 28, since previous measurement): 0.7 kg | Total weight loss (%) ([1]; patient A, 0.25 mg/week, November 28, vs Sep. 5, 2013): −8.9% | Body weight [1, 4]: 60.1 kg | Obesity BMI [1, 4]: 25.7 | Weight loss ([1]; patient A, 0.25 mg/week, October 3, since previous measurement): 1.2 kg | Total weight loss (%) ([1]; patient A, 0.25 mg/week, October 3, vs Sep. 5, 2013): −3.5% | Body weight [1, 5]: 59.1 kg | Obesity BMI [1, 5]: 25.2 | Weight loss ([1]; patient A, 0.25 mg/week, October 17, since previous measurement): 1.0 kg | Total weight loss (%) ([1]; patient A, 0.25 mg/week, October 17, vs Sep. 5, 2013): −5.1% | Body weight [1, 6]: 58.3 kg | Obesity BMI [1, 6]: 24.9 | Weight loss ([1]; patient A, 0.25 mg/week, October 31, since previous measurement): 0.8 kg | Total weight loss (%) ([1]; patient A, 0.25 mg/week, October 31, vs Sep. 5, 2013): −6.4% | Body weight [1, 7]: 62.3 kg | Obesity BMI [1, 7]: 26.6 | Body weight [1, 8]: 61.3 kg | Obesity BMI [1, 8]: 26.2 | Weight loss ([1]; patient A, 0.25 mg/week, September 19, since previous measurement): 1.0 kg | Total weight loss (%) ([1]; patient A, 0.25 mg/week, September 19, vs Sep. 5, 2013): −1.6% | Time after which BMI was decreased to a normal level ([1]; patient A, oral administration, normal BMI 21.5 to 24.9): 8 weeks | Body weight ([1]; patient A, Mar. 14, 2015): 54.2 kg | Obesity BMI ([1]; patient A, Mar. 14, 2015): 23.2 | Weight loss ([1]; patient A, Mar. 14, 2015, since previous measurement): 1.9 kg | Total weight loss (%) ([1]; patient A, Mar. 14, 2015, vs Sep. 5, 2013): −13.0%
